Laboratory results: US8710040B2, “Pharmaceutical composition comprising gabapentin or an analogue thereof and an α-aminoamide and its analgesic use” (Newron Pharmaceuticals S.p.A., priority 2001, dated 2014)
Where two headings read alike, the source gives them in different places.

Experiments:
[1] = tested on: monoarthritic rat model of chronic pain induced by complete Freund's adjuvant (CFA); test: Antiallodynic effect (von Frey mechanical allodynia) in the monoarthritic rat model of chronic pain induced by CFA; assay type: in vivo; conditions: for ED50: Rattus norvegicus, po, read-out: ED50 (compound alone); for ED50 (as restated in the formulation example): compound alone, quoted in the 20 mg formulation example; for Interaction with GBP on the antiallodynic effect (ED50mix compared with ED50add or ED50 alone): oral co-administration with GBP at fixed ratios
Experimental: This procedure involves the determination of the total amount in the mixture that is required to produce a specified synergistic antiallodynic effect at the 50% dose level (ED50mix) and the corresponding total amount that would be expected under simple additivity (ED50add). Where it is established that ED50mix<ED50add for a specific fixed ratio, then the composition has a synergistic antiallodynic effect. Both the quantities ED50mix and ED50add are random variables. ED50mix was determined from the dose-response curve for a specific fixed ratio of the components; ED50add was calculated from the ED50 values for the individual drugs.
Procedure for Testing the Antiallodynic Effect of the Composition of the Invention
Adult male. Wistar rats (body weight 175-200 g, Harlan-Nossan, Italy) were housed in separate cages with free access to water and standard rat chow at a constant temperature (22±0.5° C.) and relative humidity (60-70%), with a 6.00 am to 6.00 pm light-dark period.
The inflammation was induced in rats by an intra-plantar injection of complete Freund's adjuvant (CFA, Sigma-100 μl) into left hind paw containing heat-killed and dried Mycobacterium tuberculosis in a mixture of paraffin oil and mannide monooleate as emulsifying agent. A group of control animal were injected with 100 μl of mineral oil, the incomplete Freund's adjuvant (IFA, Sigma).
Each animal was allowed to develop the arthritis over an 8-9 day period of before testing.
Rats were placed in individual plastic boxes on a mesh metal floor and allowed to acclimatize for about 30 min. A series of calibrated von Frey hair with logarithmically incremental stiffness (from 2.83 to 5.88×Log10 of the bending force, g) were applied to the paw with the up-down method. Each hair was presented perpendicularly against the paw, with sufficient force to cause slight bending, and held approximately 2-3 sec. The filament was recorded when a positive response was noted (paw withdrawn, licking or shaking).
The antiallodynic effect was expressed as % MPE (Maximal Possible Effect) at 2 h post-dosing.
The rats were all dosed orally with various doses of an α-aminoamide alone, GBP alone, combined doses of an α-aminoamide and GBP or vehicle. The dosing volume was 2 ml/kg. The dosing materials were all prepared in the vehicle, (distilled water); drug weights were calculated as the free base.
Data are presented as mean of 4/6 animals per group/dose.
The ED50 was defined as the dose producing 50% reversal of mechanical hyperalgesia at 2 h after treatment. An experimental ED50 and 95% confidence intervals (CI) were calculated for each compound alone from the linear regressions fitting the experimental data according to the equation y=a+bx.
The different α-aminoamides were then combined with GBP at different ratios in relation to their respective ED50 previously calculated (not limiting examples of the ratios are 1:1; 1:3; 1:9 and respectively 1:1, 3:1 and 9:1 ratios) for the evaluation of the synergic effect.
Multiple (typically 4) doses of each selected ratio were then studied orally for evaluating the synergic effect of the combination.
Each rat received only one treatment.

[2] = Rat Rotarod test (motor impairment and ataxia); conditions: in vivo, po, p.o. at 2 hours, dose causing 50% of the animals to fall from the roller, read-out: TD50 (compound alone)
Experimental: The Rotarod test is an established method used as predictive of CNS-related side effects in humans, and in particular motor impairment and ataxia.
The different α-aminoamides were then combined with GBP at different ratios in relation to their respective TD50 previously calculated (a non limiting example of the ratios is the 1:1 ratio) for the evaluation of the possible synergic effect. Data are presented as mean of 8/10 animals per group/dose.
The test was performed 120 min after drug administration.

[3] = 2 h after single administration, dose producing 50% reversal of mechanical hyperalgesia, CFA rats

| Structure (SMILES) | ED50 [1, 3] [mg/kg] | ED50 (as restated in the formulation example) [1] [mg] | Interaction with GBP on the antiallodynic effect (ED50mix compared with ED50add or ED50 alone) [1] | TD50 at 120 min [2] [mg/kg] | ED50 ([1]; 2 h) [mg/kg] |
| --- | --- | --- | --- | --- | --- |
| NC(=O)NN=Cc1ccc(Oc2ccc(F)cc2)cc1 [4-(4′-fluoro-phenoxy)benzaldehyde semicarbazone, reference compound] | 14.5 |  |  |  |  |
| C[C@H](NCc1ccc(OCc2ccccc2F)cc1)C(N)=O [NW-1029, (S)-(+)-2-[4-(2-fluorobenzyloxy)benzylamino]propanamide] | 0.82 | 0.82 | synergic to GBP | 470 |  |
| CNC(=O)[C@H](C)NCc1ccc(OCc2cccc(F)c2)cc1 [NW-1043, (S)-(+)-2-[4-(3-fluorobenzyloxy)-benzylamino]-N-methyl-propanamide] | 7.05 |  | synergic to GBP |  |  |
| CNC(=O)[C@@H](Cc1ccccc1)NCc1ccc(OCc2ccccc2)cc1 [NW-1037, (R)-(−)-2-[4-benzyloxybenzylamino]-3-phenyl-N-methylpropanamide] | 3.45 |  | synergic to GBP |  |  |
| NCC1(CC(=O)O)CCCCC1 [GBP, 1-(aminomethyl)cyclohexaneacetic acid, reference compound] |  | 12.40 |  | 430 | 12.4 |
